Data as given in PubChem BioAssay AID1963985 (Molecular Pharmacology Branch, DTP, NCI, 2024).
pIC50: −log10 of the molar value.

Test system: 252836-082-R-J2-PDC tumor spheroids, viability
Experiment: Anticancer human tumor 252836-082-R-J2-PDC patient-derived head and neck squamous cell carcinoma cell line growth inhibition [PI3K]
Details: spheroids with HUVEC and MSC; for pIC50: curve of first compound; for viability, T/C: stronger effect = lower value
Procedure, shortened: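 Targeted small molecules plus PI3K inhibitors, half-log dose series from Cmax (default top 10 microM), were applied to heterotypic spheroids of cancer cells with HUVEC and MSCs. Viability indicated growth inhibition.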
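Also: spheroids exposed to agents for seven days before readout.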
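For viability, T/C in this document: percent of vehicle DMSO control viability so 100% = untreated growth.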

`Cn1ncnc1[C@H]1c2n[nH]c(=O)c3cc(F)cc(c23)N[C@@H]1c1ccc(F)cc1` + COc1c(OCCCN2CCOCC2)ccc2c3n(c(=NC(=O)c4cnc(N)nc4)nc12)CCN3 showed a pIC50 (second compound 0.00316 µM) of 7.04, a pIC50 (second compound 0.01 µM) of 7.36 and a pIC50 (second compound 0.0316 µM) of 7.89. The pIC50 (second compound 0.1 µM) was greater than 9.50, the pIC50 (second compound 0.316 µM) was greater than 9.50 and the pIC50 (second compound 1 µM) was greater than 9.50. For the same molecule, the viability, T/C (second compound 0.00316 µM, first compound 0.000316 µM) was 84.3%, the viability, T/C (second compound 0.00316 µM, first compound 0.001 µM) was 88.2% and the viability, T/C (second compound 0.00316 µM, first compound 0.00316 µM) was 86.4%. It also gave a viability, T/C (second compound 0.00316 µM, first compound 0.01 µM) of 72.1%, a viability, T/C (second compound 0.00316 µM, first compound 0.0316 µM) of 59.7% and a viability, T/C (second compound 0.00316 µM, first compound 0.1 µM) of 48.6%. It also gave a viability, T/C (second compound 0.01 µM, first compound 0.000316 µM) of 80.1%, a viability, T/C (second compound 0.01 µM, first compound 0.001 µM) of 67.5% and a viability, T/C (second compound 0.01 µM, first compound 0.00316 µM) of 80.7%. For the same molecule, the viability, T/C (second compound 0.01 µM, first compound 0.01 µM) was 72.8%, the viability, T/C (second compound 0.01 µM, first compound 0.0316 µM) was 55.6% and the viability, T/C (second compound 0.01 µM, first compound 0.1 µM) was 36.2%. It also gave a viability, T/C (second compound 0.0316 µM, first compound 0.000316 µM) of 49.3%, a viability, T/C (second compound 0.0316 µM, first compound 0.001 µM) of 60.8% and a viability, T/C (second compound 0.0316 µM, first compound 0.00316 µM) of 52%. It also gave a viability, T/C (second compound 0.0316 µM, first compound 0.01 µM) of 52.1%, a viability, T/C (second compound 0.0316 µM, first compound 0.0316 µM) of 44.2% and a viability, T/C (second compound 0.0316 µM, first compound 0.1 µM) of 24.4%. It also gave a viability, T/C (second compound 0.1 µM, first compound 0.000316 µM) of 33.4%, a viability, T/C (second compound 0.1 µM, first compound 0.001 µM) of 35.1% and a viability, T/C (second compound 0.1 µM, first compound 0.00316 µM) of 34.8%. It also gave a viability, T/C (second compound 0.1 µM, first compound 0.01 µM) of 30.9%, a viability, T/C (second compound 0.1 µM, first compound 0.0316 µM) of 19% and a viability, T/C (second compound 0.1 µM, first compound 0.1 µM) of 11.8%. The viability, T/C (second compound 0.316 µM, first compound 0.000316 µM) was 19.1%, the viability, T/C (second compound 0.316 µM, first compound 0.001 µM) was 16% and the viability, T/C (second compound 0.316 µM, first compound 0.00316 µM) was 13.6%. It also gave a viability, T/C (second compound 0.316 µM, first compound 0.01 µM) of 9.81%, a viability, T/C (second compound 0.316 µM, first compound 0.0316 µM) of 8.53% and a viability, T/C (second compound 0.316 µM, first compound 0.1 µM) of 6.35%. It also gave a viability, T/C (second compound 1 µM, first compound 0.000316 µM) of 4.84%, a viability, T/C (second compound 1 µM, first compound 0.001 µM) of 4.33% and a viability, T/C (second compound 1 µM, first compound 0.00316 µM) of 3.36%. It also gave a viability, T/C (second compound 1 µM, first compound 0.01 µM) of 2.93%, a viability, T/C (second compound 1 µM, first compound 0.0316 µM) of 1.98% and a viability, T/C (second compound 1 µM, first compound 0.1 µM) of 2.41%.
